Measured values as given in patent publication US7745446B2, “Pyrazolo[1,5-c]pyrimidines” (Bayer Schering Pharma Aktiengesellschaft, priority 2004, dated 2010).

Experiments:
MCF7 cells = test: Cellular proliferation/cytotoxicity assay (Alamar Blue), MCF7; conditions: Homo sapiens, MCF7, 48 h, read-out: Anti-proliferative/cytotoxic activity: IC50 MCF7
Protocol: The anti-proliferative activity of the compounds as described herein, is evaluated using MCF7 and MDA-MB-468 (ATCC HTB-22 and HTB-132) cell lines and the Alamar Blue (Resazurin) cell viability assay (O'Brien et al. Eur J Biochem 267, 5421-5426, 2000). Resazurin is reduced to the fluorescent resorufin by cellular dehydrogenase activity, correlating with viable, proliferating cells. Test compounds are dissolved as 10 mM solutions in DMSO and subsequently diluted. MCF7 or MDA-MB-434 cells were seeded into 96 well flat bottom plates at a density of 10000 cells/well (MCF7) or 5000 cells/well (MDA-MB-468) in a volume of 200 μl/well. 24 hours after seeding, 1 μl each of the compound dilutions are added into each well of the 96 well plates. Each compound dilution is tested as at least as duplicates. Wells containing untreated control cells were filled with 200 μl DMEM containing 0.5% v:v DMSO. The cells are then incubated with the substances for 48 hours at 37° C. in a humidified atmosphere containing 5% carbon dioxide. To determine cell viability, 20 μl of a Resazurin solution (Sigma; 90 mg/l) are added. After 4 hours incubation at 37° C. the fluorescence is measured at an extinction of 544 nm and an emission of 590 nm (Wallac Victor2; Perkin Elmer, USA). For the calculation of the cell viability the emission value from untreated cells is set as 100% viability and the emission rates of treated cells are set in relation to the values of untreated cells. Viabilities are expressed as % values. The corresponding IC50 values of the compounds for cytotoxic activity are determined from the concentration-effect curves by means of non-linear regression. The analysis of the data is performed using a biostatistical program (GraphPad Prism, USA).

GST-ΔPH-Akt1 = target: T1, GST-ΔPH-Akt1 (Homo sapiens, UniProt P31749); test: Biochemical ΔPH Akt1 assay (flashplate, 33P incorporation into histone 2B); conditions: 100 nM ATP, histone 2B substrate; read-out: ΔPHAkt1 inhibition: IC50
T1 construct: named GST-deltaPH-Akt1; 107-480aa; cloned in the pAcGl vector; GST (N); made in house; host or cells: SF9 insect cells (baculovirus vector pAcG1), co-expressed with PDK1
T1 sequence (P31749 107-480, stated change not applied): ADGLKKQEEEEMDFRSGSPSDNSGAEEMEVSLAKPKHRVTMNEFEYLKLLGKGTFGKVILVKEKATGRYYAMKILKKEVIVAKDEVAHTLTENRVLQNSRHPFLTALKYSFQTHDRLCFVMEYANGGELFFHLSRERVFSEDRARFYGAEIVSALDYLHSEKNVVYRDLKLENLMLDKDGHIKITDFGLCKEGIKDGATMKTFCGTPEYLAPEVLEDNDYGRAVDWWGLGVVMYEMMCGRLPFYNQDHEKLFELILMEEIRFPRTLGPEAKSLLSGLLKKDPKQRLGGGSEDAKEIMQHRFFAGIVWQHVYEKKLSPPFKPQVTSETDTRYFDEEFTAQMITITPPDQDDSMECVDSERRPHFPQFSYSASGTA
Text: For the biochemical assay ΔPHAkt1 is used devoid of its PH domain as a GST fusion protein (named GST-deltaPH-Akt1; 107-480aa; cloned in the pAcGl vector (BD Biosciences Pharmingen)), co-expressed with PDK1 in SF9 insect cells. The protein is purified using glutathion-affinity chromatography by standard protocols.
In order to study the inhibition of Akt according to the invention, a flashplate-based assay has been developed.
The Akt1 assay is a biochemical assay using Akt1 devoid of its PH domain and co-expressed with PDK1 in insect cells. The GST-ΔPH-Akt1 assay is run in 96 well plates by incubating 100 ng/well GST-ΔPH-Akt1, 100 ng/well histone 2B (Roche, #223514) as substrate, 10 μl of compound of invention (test compounds were dissolved as 10 mM solutions in dimethylsulfoxide (DMSO) and subsequently diluted) and 100 nM ATP (including ^33P-ATP) in 100 μl of reaction buffer ([…], pH7,5; 3 mM MgCl2; 3 mM MnCl2; 3 μM Na-Orthovanadat; 1 mM DTT; 1 μg/ml PEG8000) for 80 minutes at 30° C. The reactions are terminated by adding 100 μl stopping buffer (2% H3PO4 for 5 minutes) and are washed 3 times by using washing buffer (0.9% NaCl). Relying on the incorporation of ^33P into the protein substrate histone 2B, the detection is based on the adhesion of the phosphorylated protein to the surface of scintillator-coated flash plates (NEN, USA; #SMP-200). This phosphorylation is measured by counting the plate for 60 sec. using a plate reader (Wallac Microbeta; Perkin Elmer, USA).

MDA-MB-468 cells = test: Cellular proliferation/cytotoxicity assay (Alamar Blue), MDA-MB-468; conditions: Homo sapiens, MDA-MB-468, 48 h, read-out: Anti-proliferative/cytotoxic activity: IC50 MDA468
PKA = target: T2, PKA (Homo sapiens, UniProt P17612); test: Biochemical PKA assay (flashplate); conditions: 100 nM ATP; read-out: PKA inhibition: −log IC50 (converted)
T2 construct: His; purchased PanVera, USA #R3791; host or cells: E. coli
Protocol: For the biochemical PKA assay the catalytic subunit of PKA is expressed in E. coli as a His-tagged human recombinant protein and purified accordingly (PanVera, USA; #R3791).
In order to study the kinase inhibition activity of the compounds according to the invention, a flashplate-based assay has been developed for the serine/threonine kinase, PKA. The assay is run in 96 well plates by incubating 1 ng/well His-PKA (PanVera, USA; #R3791), 0.5 μM/well PKA peptide (#12-394; Upstate, USA) as substrate, 10 μl of compound of invention (test compounds were dissolved as 10 mM solutions in dimethylsulfoxide (DMSO) and subsequently diluted) and 100 nM ATP (including ^33P-ATP) in 100 μl of reaction buffer ([…], pH7,5; 3 mM MgCl2; 3 mM MnCl2; 3 μM Na-Orthovanadat; 1 mM DTT) for 80 minutes at 22° C. The reactions are stopped by adding 100 μl stopping buffer (2% H3PO4 for 5 minutes) and are washed 3 times by using washing buffer (200 μl 1×PBS). Relying on the incorporation of ^33P into the peptide substrate, the detection is based on the adhesion of the phosphorylated peptide to the surface of scintillator-coated Flash plates (Perkin Elmer, USA; #SMP-103). This phosphorylation is measured by counting the plate for 60 sec. using a plate reader (Wallac Microbeta; Perkin Elmer, USA). By using this method the IC50 of the PKA inhibition is determined.

| Structure (SMILES) | IC50 (GST-ΔPH-Akt1) | IC50 (PKA) | IC50 (MCF7 cells) | IC50 (MDA-MB-468 cells) |
| --- | --- | --- | --- | --- |
| NCC(C(=O)Nc1cccc(Nc2nc(-c3cccc4c3oc3ccccc34)cc3ccnn23)c1)c1ccc(Cl)c(Cl)c1 (racemic) [Example 41, rac-3-Amino-N-[3-(5-dibenzofuran-4-yl-pyrazolo[1,5-c]pyrimidin-7-ylamino)-phenyl]-2-(3,4-dichloro-phenyl)-propionamide] | ≤ 1.75 µM | > 100 µM | ≤ 16.9 µM | ≤ 13.6 µM |
| NCCC(C(=O)Nc1ccc(Nc2nc(-c3cccc4c3oc3ccccc34)cc3ccnn23)cc1)c1ccc(Cl)c(Cl)c1 (racemic) [Example 43, rac-4-Amino-N-[4-(5-dibenzofuran-4-yl-pyrazolo[1,5-c]pyrimidin-7-ylamino)-phenyl]-2-(3,4-dichloro-phenyl)-butyramide] | ≤ 1.75 µM | 6.31 to 100 µM | ≤ 16.9 µM | ≤ 13.6 µM |
| NCc1ccc(C(=O)Nc2cccc(Nc3nc(-c4cccc5c4oc4ccccc45)cc4ccnn34)c2)c(F)c1 [Example 27, 4-Aminomethyl-N-[3-(5-dibenzofuran-4-yl-pyrazolo[1,5-c]pyrimidin-7-ylamino)-phenyl]-2-fluoro-benzamide] | ≤ 1.75 µM | > 100 µM | ≤ 16.9 µM | ≤ 13.6 µM |
| NCc1ccc(C(=O)Nc2ccc(Nc3nc(-c4cccc5c4oc4ccccc45)cc4ccnn34)cc2)c(F)c1 [Example 28, 4-Aminomethyl-N-[4-(5-dibenzofuran-4-yl-pyrazolo[1,5-c]pyrimidin-7-ylamino)-phenyl]-2-fluoro-benzamide] | ≤ 1.75 µM | > 100 µM | ≤ 16.9 µM | ≤ 13.6 µM |
| NCc1ccc(C(=O)Nc2ccc(Nc3nc(-c4cccc5c4oc4ccccc45)cc4ccnn34)cc2)cn1 [Example 29, 6-Aminomethyl-N-[4-(5-dibenzofuran-4-yl-pyrazolo[1,5-c]pyrimidin-7-ylamino)-phenyl]-nicotinamide] | ≤ 1.75 µM | > 100 µM | ≤ 16.9 µM | ≤ 13.6 µM |
| NCc1cc(C(=O)Nc2ccc(Nc3nc(-c4cccc5c4oc4ccccc45)cc4ccnn34)cc2)ccn1 [Example 30, 2-Aminomethyl-N-[4-(5-dibenzofuran-4-yl-pyrazolo[1,5-c]pyrimidin-7-ylamino)-phenyl]-isonicotinamide] | ≤ 1.75 µM | > 100 µM |  |  |
| CNCc1ccc(C(=O)Nc2cccc(Nc3nc(-c4cccc5c4oc4ccccc45)cc4ccnn34)c2)cc1 [Example 32, N-[3-(5-Dibenzofuran-4-yl-pyrazolo[1,5-c]pyrimidin-7-ylamino)-phenyl]-4-methylaminomethyl-benzamide] | ≤ 1.75 µM | 6.31 to 100 µM | ≤ 16.9 µM | ≤ 13.6 µM |
| O=C(Nc1cccc(Nc2nc(-c3cccc4c3oc3ccccc34)cc3ccnn23)c1)c1ccc2c(c1)CNCC2 [Example 34, 1,2,3,4-Tetrahydro-isoquinoline-7-carboxylic acid [3-(5-dibenzofuran-4-yl-pyrazolo[1,5-c]pyrimidin-7-ylamino)-phenyl]-amide] | ≤ 1.75 µM | 6.31 to 100 µM | ≤ 16.9 µM | ≤ 13.6 µM |
| CC(C)(N)c1ccc(C(=O)Nc2cccc(Nc3nc(-c4cccc5c4oc4ccccc45)cc4ccnn34)c2)cc1 [Example 40, 4-(1-Amino-1-methyl-ethyl)-N-[3-(5-dibenzofuran-4-yl-pyrazolo[1,5-c]pyrimidin-7-ylamino)-phenyl]-benzamide] | ≤ 1.75 µM | 6.31 to 100 µM |  |  |
| NCc1cccc(C(=O)Nc2ccc(Nc3nc(-c4cccc5c4oc4ccccc45)cc4ccnn34)cc2)n1 [Example 51, 6-Aminomethyl-pyridine-2-carboxylic acid [4-(5-dibenzofuran-4-yl-pyrazolo[1,5-c]pyrimidin-7-ylamino)-phenyl]-amide] | ≤ 1.75 µM | > 100 µM |  |  |
| O=C(Nc1ccc(Nc2nc(-c3ccc(Br)cc3)cc3ccnn23)cc1)c1ccc2c(c1)CCNC2 [Example 85, 1,2,3,4-Tetrahydro-isoquinoline-6-carboxylic acid {4-[5-(4-bromo-phenyl)-pyrazolo[1,5-c]pyrimidin-7-ylamino]-phenyl}-amide] | ≤ 1.75 µM |  | ≤ 16.9 µM | ≤ 13.6 µM |

The next lines start with results.

| IC50 (GST-ΔPH-Akt1) | IC50 (PKA) | Structure (SMILES) | IC50 (MCF7 cells) | IC50 (MDA-MB-468 cells) |
| --- | --- | --- | --- | --- |
| ≤ 1.75 µM | > 100 µM | NCc1ccc(C(=O)Nc2ccc(Nc3nc(-c4ccc(-c5ccccc5)cc4)cc4ccnn34)cc2)cc1 [Example 1, 4-Aminomethyl-N-[4-(5-biphenyl-4-yl-pyrazolo[1,5-c]pyrimidin-7-ylamino)-phenyl]-benzamide] | ≤ 16.9 µM | ≤ 13.6 µM |
| ≤ 1.75 µM | > 100 µM | NCCc1ccc(C(=O)Nc2ccc(Nc3nc(-c4cccc5c4oc4ccccc45)cc4ccnn34)cc2)cc1 [Example 23, 4-(2-Amino-ethyl)-N-[4-(5-dibenzofuran-4-yl-pyrazolo[1,5-c]pyrimidin-7-ylamino)-phenyl]-benzamide] | ≤ 16.9 µM | ≤ 13.6 µM |
| ≤ 1.75 µM | > 100 µM | CNCc1ccc(C(=O)Nc2ccc(Nc3nc(-c4cccc5c4oc4ccccc45)cc4ccnn34)cc2)cc1 [Example 33, N-[4-(5-Dibenzofuran-4-yl-pyrazolo[1,5-c]pyrimidin-7-ylamino)-phenyl]-4-methylaminomethyl-benzamide] | ≤ 16.9 µM | ≤ 13.6 µM |
| ≤ 1.75 µM | > 100 µM | N=C(N)Nc1ccc(C(=O)Nc2ccc(Nc3nc(-c4cccc5c4oc4ccccc45)cc4ccnn34)cc2)cc1 [Example 48, N-[4-(5-Dibenzofuran-4-yl-pyrazolo[1,5-c]pyrimidin-7-ylamino)-phenyl]-4-guanidino-benzamide] |  |  |
| ≤ 1.75 µM | 6.31 to 100 µM | NCc1ccc(C(=O)Nc2ccc(Nc3nc(-c4ccc(-c5ccccc5)nc4)cc4ccnn34)cc2)cc1 [Example 54, 4-Aminomethyl-N-{4-[5-(6-phenyl-pyridin-3-yl)-pyrazolo[1,5-c]pyrimidin-7-ylamino]-phenyl}-benzamide] |  |  |
| ≤ 1.75 µM | 6.31 to 100 µM | CC(=O)Nc1cccc(-c2ccc(-c3cc4ccnn4c(Nc4ccc(NC(=O)c5ccc(CN)cc5)cc4)n3)cc2)c1 [Example 60, N-{4-[5-(3′-Acetylamino-biphenyl-4-yl)-pyrazolo[1,5-c]pyrimidin-7-ylamino]-phenyl}-4-aminomethyl-benzamide] |  |  |
| ≤ 1.75 µM |  | COc1cccc(-c2ccc(-c3cc4ccnn4c(Nc4ccc(NC(=O)c5ccc(CCN)cc5)cc4)n3)cc2)c1 [Example 78, 4-(2-Amino-ethyl)-N-{4-[5-(3′-methoxy-biphenyl-4-yl)-pyrazolo[1,5-c]pyrimidin-7-ylamino]-phenyl}-benzamide] | ≤ 16.9 µM | ≤ 13.6 µM |
| ≤ 1.75 µM |  | O=C(Nc1ccc(Nc2nc(-c3ccc(-c4cccc([N+](=O)[O-])c4)cc3)cc3ccnn23)cc1)c1ccc2c(c1)CCNC2 [Example 80, 1,2,3,4-Tetrahydro-isoquinoline-6-carboxylic acid {4-[5-(3′-nitro-biphenyl-4-yl)-pyrazolo[1,5-c]pyrimidin-7-ylamino]-phenyl}-amide] | ≤ 16.9 µM | ≤ 13.6 µM |
| ≤ 1.75 µM |  | NCCc1ccc(C(=O)Nc2ccc(Nc3nc(-c4ccc(-c5cccc([N+](=O)[O-])c5)cc4)cc4ccnn34)cc2)cc1 [Example 81, 4-(2-Amino-ethyl)-N-{4-[5-(3′-nitro-biphenyl-4yl)-pyrazolo[1,5-c]pyrimidin-7-ylamino]-phenyl}-benzamide] | ≤ 16.9 µM | ≤ 13.6 µM |
